# Measurements published in patent US10285994B2, “Method of preventing or treating osteoporosis by neddylation inhibitor” (Chang Gung University, priority 2017, dated 2019).
# Legend:
# [1] = tested on: primary mouse bone marrow-derived macrophages (BMMs); experiment: Pit assay on Corning Osteo Surface, BMM-derived osteoclasts; assay type: cell-based; details: M-CSF, sRANKL, 7 days, FIG. 1B
# Protocol: (§1) FIGS. 1A-1D are data collected from primary mouse bone marrow-derived macrophages (BMMs) respectively incubated in the medium containing the soluble recombinant RANKL (sRANKL, 50 ng/ml), macrophage colony-stimulating factor (M-CSF, 40 ng/ml) and specified concentrations of MLN4924 for 7 days according to example 1.1 of the present disclosure. FIG. 1A: the photographs of TRAP staining depicting the differentiation of osteoclasts from BMMs. FIG. 1B: after the differentiation of osteoclasts in Corning Osteo Surface (a synthetic 3-dimensional structure that mimics in vivo bone for in vitro bone cell assays), the cells were removed, and the resorbed areas for confirming osteoclast activity were analyzed by 1% toluidine blue staining. FIG. 1C: the culture medium is subject to Biovision Cathepsin K Activity Fluorometric Assay Kit for the analysis of cathepsin K activity. FIG. 1D: the effect of effective doses of MLN4924 on the viability of BMMs is evaluated by MTT assay. Scale bar represents 100 μm. Data are expressed as mean±SD where *p<0.05; **p<0.01.
# The pre-osteoclasts and RAW264.7 cells were seeded into Corning Osteo Surface Assay 96-wells plate (Corning, Kennebunk, Me.). […]
# The effect of MLN4924 on the activity of osteoclast was then confirmed by pit assay. […] The resorbing areas on bone matrix by osteoclasts were visualized by 1% toluidine blue staining and quantified by image software.
# RAW264.7 cells = experiment: Osteoclast formation from RAW264.7 cells, TRAP staining; assay type: cell-based, mouse; details: sRANKL-activated RAW264.7 cells, 7 days, FIG. 2A
# Protocol: (§2) FIGS. 2A-2D are data collected from RAW264.7 cells respectively incubated in the medium containing sRANKL (50 ng/ml) and specified concentrations of MLN4924 for 7 days according to example 1.2 of the present disclosure. FIG. 2A: the photographs of TRAP staining depicting the differentiation of osteoclasts from RAW264.7 cells. FIG. 2B: after the differentiation of osteoclasts in Corning Osteo Surface, the cells were removed, and the resorbed areas for confirming osteoclast activity were analyzed by 1% toluidine blue staining. FIG. 2C: the culture medium is subject to Biovision Cathepsin K Activity Fluorometric Assay Kit for the analysis of cathepsin K activity. FIG. 2D: the effect of effective doses of MLN4924 on the viability of RAW264.7 cells is evaluated by MTT assay. Scale bar represents 100 μm. Data are expressed as mean±SD where *p<0.05.
# RAW264.7 cells (murine monocytic/macrophage cell line) were cultured in Dulbecco's modified Eagle's medium high glucose (DMEM)(Gibco BRL, Gaithersburg, Md.) containing 10% fetal bovine serum (Gibco) and 1× GlutaMax (Gibco).
# For in vitro osteoclast formation, the pre-osteoclasts and RAW264.7 cells were cultured in the medium containing 50 ng/ml sRANKL […] specified concentrations of MLN4924 for seven days. […]
# NFATc-1 = experiment: Western blot, sRANKL-induced NFATc-1 expression in RAW264.7 cells; assay type: cell-based, mouse; details: RAW264.7, 30 min pre-treatment, sRANKL 50 ng/ml, FIG. 3C-3D
# Protocol: (§3) FIGS. 3A-3D are data collected from Western blot analysis that respectively depict the expression of specified protein extracted from the RAW264.7 cells, which are pre-treated with specified concentrations of MLN4924 for 30 minutes followed by the stimulation of sRANKL (50 ng/ml) according to example 2 of the present disclosure. FIG. 3A: the time course effect of MLN4924 on the phosphorylations of ERK (pERK), P38 (pP38) and JNK (pJNK). FIG. 3B: the dose effect of MLN4924 on the phosphorylations of ERK (pERK), P38 (pP38) and JNK (pJNK). FIG. 3C: the time course effect of MLN4924 on the expression of NFATc-1. FIG. 3D: the dose effect of MLN4924 on the expression of NFATc-1. Mock: untreated control; R: sRANKL; M: MLN4924.
# (§4) The RAW264.7 cells were starved with serum-free medium for six hours and then treated with the specified treatments. At indicated time points, the cells were washed with cold phosphate-buffered saline (PBS) and lysed in RIPA buffer containing complete protease inhibitor cocktail (Roche). The cell lysates were separated by SDS-PAGE followed by Western blotting with the indicated antibodies, including NEDD8, APPBP1, UBA3.
# In addition, ectopic expression of NFATc-1 in the pre-osteoclasts rendered the pre-osteoclast differentiated to osteoclasts in the absence of RANKL. […]
# cathepsin K [2] = experiment: Cathepsin K activity fluorometric assay, BMMs; assay type: cell-based, mouse; details: FIG. 1C
# Protocol: as §1
# The pre-osteoclasts and RAW264.7 cells were seeded into Corning Osteo Surface Assay 96-wells plate (Corning, Kennebunk, Me.). Twenty-four hours later, the cells were treated with sRANKL (50 ng/ml) and specified concentrations of MLN4924 for 7 days. […]
# ERK (pERK) = experiment: Western blot, sRANKL-induced ERK phosphorylation in RAW264.7 cells; assay type: cell-based, mouse; details: RAW264.7, 30 min pre-treatment, sRANKL 50 ng/ml, FIG. 3A-3B
# Protocol: as §3, §4
# Specifically, the inhibitory effect increased with an increase in the MLN4924 concentration (FIG. 3B).
# cathepsin K [3] = experiment: Cathepsin K activity fluorometric assay, RAW264.7 cells; assay type: cell-based, mouse; details: sRANKL-activated RAW264.7 cells, 7 days, FIG. 2C
# Protocol: as §2
# The pre-osteoclasts and RAW264.7 cells were seeded into Corning Osteo Surface Assay 96-wells plate (Corning, Kennebunk, Me.). Twenty-four hours later, the cells were treated with sRANKL (50 ng/ml) and specified concentrations of MLN4924 for 7 days. The cells were then harvested so as to evaluate the cathepsin K activity by use of Biovision Cathepsin K Activity Fluorometric Assay Kit (Biovision, Milpitas, Calif.). The Corning Osteo surface was stained with 1% toluidine blue for 24 hours and washed with deionized water twice. […]
smiles,measurement,setting,value
"NS(=O)(=O)OC[C@@H]1C[C@@H](n2ccc3c(N[C@H]4CCc5ccccc54)ncnc32)C[C@@H]1O [MLN4924, (1S,2S,4R)-4-(4-((1S)-2,3-Dihydro-1H-inden-1-ylamino)-7H-pyrrolo(2,3-d)pyrimidin-7-yl)-2-hydroxycyclopentyl) methyl sulphamate]","resorbing activity of osteoclasts (pit assay, toluidine blue)",[1],suppressed the resorbing activity of osteoclasts in a dose-dependent manner
same,differentiation of osteoclasts (TRAP staining),RAW264.7 cells,significantly inhibited
same,expression of NFATc-1 induced by sRANKL,NFATc-1,significant suppressed
same,basal activity of cathepsin K,cathepsin K [2]; MLN4924 alone without sRANKL,did not affect the basal activity of cathepsin K in macrophages
same,activity of cathepsin K versus sRANKL group,cathepsin K [2]; with sRANKL,significantly reduced the activity of cathepsin K
same,sRANKL-upregulated phosphorylation of ERK (pERK),ERK (pERK),inhibited
same,osteolytic enzyme cathepsin K activity of osteoclasts,cathepsin K [3],significantly inhibited
